Data taken from US6723235B2, “Apparatus for screening compound libraries” (priority 1998, dated 2004).

Target: cholera toxin B subunit (Vibrio cholerae serotype O1, UniProt P01556)
Assay type: binding

Chain of cholera toxin B subunit (P01556 22-124 limits assumed): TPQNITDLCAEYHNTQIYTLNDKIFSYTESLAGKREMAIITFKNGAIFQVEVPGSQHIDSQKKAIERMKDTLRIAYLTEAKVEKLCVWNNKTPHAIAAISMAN

SMILES	break through volume (pH 6.9) [µL]	break through relative to void volume
CC(=O)N[C@H]1[C@H](O[C@@H]2[C@H](O[C@]3(C(=O)O)C[C@H](O)[C@@H](NC(C)=O)[C@H]([C@H](O)[C@H](O)CO)O3)[C@@H](O)[C@H](O[C@H]3[C@H](O)[C@@H](O)[C@H](O)O[C@@H]3CO)O[C@@H]2CO)O[C@H](CO)[C@H](O)[C@@H]1O[C@@H]1O[C@H](CO)[C@H](O)[C@H](O)[C@H]1O [compound 7, GM1 oligosaccharide]	~300	–
COC(=O)CCCCCCCCOC1OC(COC2OC(CO)C(O)C(O)C2O)C(O)C(OC2OC(CO)C(O)C(O)C2O)C1O (centres unmarked) [compound 3, αMan(1→3)[αMan(1→6)]βMan-OGr]	–	broke through in the void volume
